Test results from US9221814B2, “Heterocyclic guanidine F1F0-atpase inhibitors and therapeutic uses thereof” (Lycera Corporation, priority 2012, dated 2015).
Like-named read-outs stand apart in the source and are kept apart here. Each block holds one compound with its values, some of them ahead of it.

Legend:
Ramos cells = assay: Cytotoxicity in Ramos cells; format: cell-based; conditions: detection limit EC50=16 μM, read-out: Ramos Cell EC50
Protocol: (§1) Exemplary compounds described in above Examples were tested for activity against F1F0-ATPase by measuring the ability of the compounds to inhibit ATP synthesis. In addition, the compounds were assessed for cytotoxicity in Ramos cells. Inhibition of F1F0-ATPase activity in synthesizing ATP and cytotoxicity in Ramos cells were measured according to the procedures described in K. M. Johnson et al. Chemistry & Biology 2005, 12, 485-496.

F1F0-ATPase = molecular target: T1, F1F0-ATPase (Bos taurus, UniProt P13621); assay: Inhibition of F1F0-ATPase activity in synthesizing ATP (ATP synthesis inhibition); format: biochemical; conditions: detection limit IC50=16 μM, read-out: ATP Syn IC50
T1 construct: from tissue
Protocol: as §1

Structure (SMILES): CC(C)N/C(=N/C(=O)c1ccn(C(C)C)n1)Nc1cc(-c2ccc(F)cc2)n[nH]1 [Compound A-57]
EC50 (Ramos cells): 5 to 16 µM
IC50 (F1F0-ATPase): 5 to 16 µM

Structure (SMILES): Cc1oncc1C(=O)/N=C(\Nc1cc(-c2cc(F)cc(F)c2)n[nH]1)NC(C)C [Compound A-77]
EC50 (Ramos cells): > 16 µM
IC50 (F1F0-ATPase): 5 to 16 µM

Structure (SMILES): COc1ccc(-c2cc(N/C(=N\C(=O)c3cn(C)nc3C(F)(F)F)NCC(C)C)n[nH]2)cc1F [Compound A-133]
EC50 (Ramos cells): < 5 µM
IC50 (F1F0-ATPase): < 5 µM

Structure (SMILES): CC(C)CN/C(=N\C(=O)c1cn(C)nc1C(F)(F)F)Nc1cc(-c2cc(F)cc(F)c2)n[nH]1 [Compound A-26]
EC50 (Ramos cells): < 5 µM
IC50 (F1F0-ATPase): < 5 µM

Structure (SMILES): Cc1nnsc1C(=O)/N=C(/NCC(C)C)Nc1cc(-c2ccc(F)cc2)[nH]n1 [Compound A-120]
EC50 (Ramos cells): > 16 µM
IC50 (F1F0-ATPase): > 16 µM

Structure (SMILES): CCOCCCN/C(=N/C(=O)c1cnoc1C)Nc1cc(-c2ccc(F)cc2)n[nH]1 [Compound A-105]
EC50 (Ramos cells): > 16 µM
IC50 (F1F0-ATPase): > 16 µM

The next lines start with results.

IC50 (F1F0-ATPase): < 5 µM
Structure (SMILES): Cn1cc(C(=O)/N=C(\Nc2cc(-c3ccc(O)cc3F)[nH]n2)NC(C)(C)C)c(C(F)(F)F)n1 [Compound A-136]
EC50 (Ramos cells): < 5 µM

IC50 (F1F0-ATPase): < 5 µM
Structure (SMILES): Cn1cc(C(=O)/N=C(/Nc2cc(F)cc(Cl)c2)Nc2cc(-c3ccc(O)c(F)c3)n[nH]2)c(C(F)(F)F)n1 [Compound A-189]
EC50 (Ramos cells): < 5 µM

IC50 (F1F0-ATPase): < 5 µM
Structure (SMILES): Cn1cc(C(=O)/N=C(\NCC(C)(C)C)Nc2cc(-c3cc(F)cc(F)c3)n[nH]2)c(C(F)(F)F)n1 [Compound A-31]
EC50 (Ramos cells): < 5 µM

IC50 (F1F0-ATPase): < 5 µM
Structure (SMILES): Cc1cc(C(=O)/N=C(/Nc2cc(F)cc(Cl)c2)Nc2cc(C(F)(F)F)nn2C(C)C)on1 [Compound A-225]
EC50 (Ramos cells; Homo sapiens): < 5 µM

IC50 (F1F0-ATPase): < 5 µM
Structure (SMILES): COC[C@H](C)N/C(=N/C(=O)c1cc(C(C)(C)C)nn1C)Nc1cc(-c2ccc(Cl)cc2)n[nH]1 [Compound A-76]
EC50 (Ramos cells): < 5 µM

IC50 (F1F0-ATPase): < 5 µM
Structure (SMILES): Cc1cc(C(=O)/N=C(/NCC(C)C)Nc2cc(-c3ccc(F)cc3)n[nH]2)c(C(F)(F)F)o1 [Compound A-203]
EC50 (Ramos cells): < 5 µM

IC50 (F1F0-ATPase): < 5 µM
Structure (SMILES): CCn1nc(C)cc1C(=O)/N=C(\Nc1cc(-c2ccc(F)cc2)n[nH]1)NC(C)C [Compound A-54]
EC50 (Ramos cells): < 5 µM

IC50 (F1F0-ATPase): < 5 µM
Structure (SMILES): Cc1ccc(-c2cc(N/C(=N\C(=O)c3cnoc3C)NC(C)(C)C)[nH]n2)cc1F [Compound A-93]
EC50 (Ramos cells): < 5 µM

IC50 (F1F0-ATPase): < 5 µM
Structure (SMILES): Cc1cc(C(=O)/N=C(\Nc2ccc(C(F)(F)F)nc2)Nc2cccc(Cl)c2)n(C)n1 [Compound A-230]
EC50 (Ramos cells; Homo sapiens): < 5 µM

IC50 (F1F0-ATPase): < 5 µM
Structure (SMILES): O=C(/N=C(/NCc1ccc(F)cc1Cl)Nc1cc(C(F)(F)F)n[nH]1)c1nccs1 [Compound A-198]
EC50 (Ramos cells): < 5 µM
